Assay [1] has as its target neuronal nicotinic receptors. The assay can be described thus: Displacement of [3H]-MCC or [3H]-cytisine from neuronal nicotinic receptors, whole rat brain membranes. In kind it is binding. How it is done: Binding of [^3 H]-methylcarbamylcholine ([^3 H]-MCC) or [^3 H]-cytisine ([^3 H]-CYT) to nicotinic receptors was accomplished using crude synaptic membrane preparations from whole rat brain (Snyder and Enna, Brain Research, 1975, 100:81). Washed membranes were stored at -80° C. prior to use. Frozen aliquots were slowly thawed and resuspended in 20 volumes of buffer (containing: 120 mM NaCl, 5 mM KCl, 2 mM MgCl2, 2 mM CaCl2 and 50 mM Tris-Cl, pH 7.4 @4° C). After centrifuging at 20,000 X g for 15 minutes, the pellets were resuspended in 30 volumes of buffer. Homogenate (containing 125-150 μg protein) was added to triplicate tubes containing concentrations of test compound and [^3 H]-MCC (3 nM) in a final volume of 500 μL. Samples were incubated for 60 minutes at 4° C., then rapidly filtered through Whatman GF/B filters presoaked in 0.5% polyethylimine using 3×4 mL of ice-cold buffer. Alternately, homogenate and test compound were incubated for 75 min with [^3 H]-CYT (1.3 nM), then rapidly filtered, as described above. The filters are counted in 4 mL of Ecolume® (ICN). […] IC50 values were determined with the ALLFIT nonlinear least squares curve-fitting program and IC50 values were converted to Ki values using the Cheng and Prusoff correction (Ki =IC50 /(1+[ligand]/Kd of ligand)). Alternately, data were expressed as a percentage of the total specific binding.
A general note: In a radioligand displacement assay an active substance lowers the binding of a labelled ligand.

In assay [2] the target is muscarinic receptors. In kind it is binding, rat. The settings on record: Table 2. How it is done: The potencies of ligand binding at central muscarinic binding sites were determined by analysis of competition with the specific muscarinic receptor radioligand [^3 H]-quinuclidinyl benzilate ([^3 H]-QNB). […] Competition between various concentrations of putative nicotinic ligand compounds and 0.2 nM [^3 H]-QNB was performed at 25° C. in an assay volume of 1 mL. After 75 minutes, the bound radioligand was separated by vacuum filtration on Whatman GF/B glass fiber filters. Non-specific binding was defined as radioactivity remaining in the presence of 10 μM atropine. Competition curves were analyzed for Ki values as described above for binding to the nicotinic receptor.

The test system of assay [3] is neuronal nicotinic cholinergic channels in PC12 cells. The assay can be described thus: Cholinergic channel activator action in PC12 cells, whole-cell patch-clamp. In kind it is cell-based, rat. To be noted: PC12 cells; mean ± S.E.M. How it is done:
Electrophysiologic recordings were obtained from differentiated (neurite-bearing) cells after 4-7 days exposure to NGF. […] After 20 minutes, differentiating medium was added (DMEM containing 100 ng/ml nerve growth factor, 5% heat-inactivated fetal calf serum and 2.5% heat-inactivated horse serum) and the cells were refed with this medium every 3 days.
The intracellular (recording pipette) solution consisted of 140 mM KCl, 1.0 mM CaCl2, 2.0 mM MgCl2, 11 mM K-EGTA, and 10 mM K-HEPES buffer (7.3 pH, 315 mOsm). Osmolarities were adjusted using dextrose such that the extracellular solution was 10 mOsm hypertonic compared to the intracellular solution. Voltage-gated inward (sodium) and outward (potassium) currents were monitored throughout the experiment to determine establishment and maintenance of the whole-cell recording configuration.

The test system of assay [4] is ethanol-induced narcosis. In kind it is in vivo, male CD1 mice. The settings on record: post-treatment. The text has this: It is known that administration of ethanol to mice induces a state of narcosis in the animals. […] It is also known that certain compounds can modify the narcotic effect of ethanol in this model.
Animals: Male CD1 mice (Charles-River Co., Portage, Mich.) weighing 25-30 g were used in the experiments. Upon arrival they were caged in groups of 14 and allowed to acclimatize to laboratory conditions for one week before the beginning of the studies. They were fed standard rodent diet with food and water ad libitum.
Duration of sleep time: Mice received intraperitoneal (i.p.) injections of ethanol and either saline or one of the drug treatments. Upon loss of the righting reflex, a timer was started to record the duration of the sleep time until the reflex was recovered. Two types of experiments were conducted to study the effect of drugs before (pre-treatment) or after (post-treatment) the injection of the narcotic dose of ethanol. In the pre-treatment experiments the drugs were injected i.p., 15 minutes before ethanol. In the post-treatment experiments the drugs were administered i.p., 1 minute after the animals lost the righting reflex, which was approximately 5 minutes after administration of ethanol.
Drugs: Ethanol was prepared as a 20% v/v (16% w/v) solution in saline. Based on previous studies, a dose of 87 mmol/kg (4 g/kg) was selected as the narcotic dose. RO 15-4513, the benzodiazepine receptor inverse agonist discussed in the Background section, was purchased from RBI (Natick, Mass.). It was dissolved in saline solution with Tween-80 and ultrasonically homogenized for 3 minutes. […] The compounds of Examples 2 and 4, both novel neuronal nicotinic receptor ligands according to the present invention, were also dissolved in saline to the desired concentrations.

For assay [5], the system named is anxiety induced by (-)-nicotine withdrawal. The assay can be described thus: Elevated plus-maze 48 hours after withdrawal of 14-day chronic (-)-nicotine. To be noted: for TIME OPEN ARMS: chronic (-)-nicotine, mean ± SEM. In kind it is in vivo, rats. The text has this:
The mouse elevated plus-maze is a conflict test that probes anxiolytic activity of test compounds (Lister, Psychopharmacology, 1987, 92:180). It is based on the fact that exposure of mice to an elevated open arm leads to an avoidance response considerably stronger than that evoked by exposure to an enclosed arm. Compounds may be tested for their ability to modify the avoidance response of the animal to the open arm maze. […] The effect of such potential anti-anxiety drugs may be tested further in a withdrawal challenge test.
Elevated Plus-Maze: The procedure originally described by Pellow et al., for rats was used, with minor modifications (Pellow et al., J. Neurosci. Meth., 14: 149, 1985). The apparatus consisted of two open arms (50×10 cm) and two enclosed arms (50×10×40 cm) extending from a central platform (10×10 cm). It was mounted on a base raising 50 cm above the floor. Light levels on the open and enclosed arms were similar. The animals were placed in the center of the maze and the time spent in the open arms and the total distance traveled by the rat were recorded automatically by a camera mounted above the apparatus, then analyzed by computer (Videomex™ software, Columbus Instruments, Columbus, Ohio). All animals used were naive to the apparatus. Animals were injected i.p. with saline or the different drug doses, and submitted to the test 30 minutes later. The test lasted 5 minutes, and the apparatus was thoroughly cleaned after removal of the animal.
The pumps were removed on day 14 and the animals were tested in the plus-maze 48 hours later, at the time when a state of withdrawal-induced anxiety was present in the rats. On the test day i.p. doses of either saline or the compound of Example 2 were administered to the animals 30 minutes before the test. Data (Table 13) represent the mean ±SEM time spent in the open arms of the plus-maze of 8-16 rats.

One compound from patent publication US5409946A, “Isoxazole, isothiazole and pyrazole compounds that enhance cognitive function” (Abbott Laboratories, priority 1993, dated 1995) can be followed below.

Where two headings read alike, the source gives them in different places.

`Cc1cc([C@@H]2CCCN2C)on1.O=C(O)C(=O)O` [Example 2, 3-Methyl-5-(1-methyl-2(S)-pyrrolidinyl)-isoxazole oxalate salt]: the Ki in assay [1] (Table 1, oxalate salt, read-out: Nicotinic Receptor Ki) came out at 0.005 µM; in assay [1] (Table 2, read-out: Nicotinic Ki), 0.005 µM; in assay [2] it was 160 µM. Besides, the half-maximal effective concentration (EC50) in assay [3] came out at 209 ± 76 µM. Moreover, the Sleeping time in assay [4] (0.062 μmol/kg i.p.) is reported as 91 ± 20 % of controls; in assay [4] (0.19 μmol/kg i.p.) it was 68 ± 15 % of controls; in assay [4] (0.62 μmol/kg i.p.), 51 ± 8 % of controls. Also, the “effect of post-treatment on ethanol-induced narcosis” value in assay [4] (i.p., p<0.05, one-tailed t test) is “significantly reduced”. For the same compound, the “effect on time spent in the open arms” value in assay [5] (48 h after withdrawal of chronic (-)-nicotine) was “significant increase in the time spent in the open arms”. The “TIME OPEN ARMS” value came out at 36.8 ± 12.5 s in assay [5] (challenge 0.19 μmol/kg i.p.); 73.6 ± 7.7 s in assay [5] (challenge 0.62 μmol/kg i.p., **p < 0.05 against chronic nicotine, saline-challenged); 43.1 ± 10.1 s in assay [5] (challenge 1.9 μmol/kg i.p.).

Usually Ki stands for the equilibrium dissociation constant of an inhibitor or competing ligand from its target. As usually defined, the EC50 is the concentration needed to bring the measured effect to its halfway point.
